Test results published in patent US20080107613A1, “Pharmaceutical composition comprising a macrolide t-cell immunomodulator and anti-photoaging agent” (priority 2004, published 2008).

What was measured:
[1] = tested on: DNA damage induced by UV light in mouse skin (epidermal thymine dimers); conditions: hairless mice pretreated with 1% pimecrolimus cream or 0.1% tacrolimus ointment; measured one hour after 1 J/cm^2 UVB irradiation; cited from earlier work
[2] = tested on: UVB-induced apoptosis in mouse skin; conditions: hairless mice pretreated with 1% pimecrolimus cream or 0.1% tacrolimus ointment; UVB irradiation; versus untreated mice; cited from earlier work
[3] = tested on: pyrimidine/thymine dimers in DNA extracted from epidermis; experiment: Thymine dimer levels in human epidermis after simulated solar radiation (immunoslot blot, chemoluminescence image analysis); format: in vivo; conditions: skin sites of subjects with or without atopic dermatitis pretreated with pimecrolimus, 1 hour post-irradiation
Experimental: Similar results are obtained with skin from subjects receiving pimecrolimus, either with or without skin disease (atopic dermatitis), exposed to simulated solar radiation, when DNA is extracted from epidermis biopsied 1 hour and 24 hours after irradiation, as measured by pyrimidine dimer visualization by immunoslot blot and quantification by chemoluminescence image analysis: at 1 hour post-irradiation thymine dimer levels are clearly lower as compared to untreated control, indicative of reduced dimer production in skin sites pretreated with pimecrolimus.

| Compound | decrease of amount of epidermal thymine dimers as compared to untreated mice [1] | UVB-induced apoptosis [2] | thymine dimer levels as compared to untreated control [3] |
| --- | --- | --- | --- |
| C=CC[C@@H]1/C=C(\C)C[C@H](C)C[C@H](OC)[C@H]2O[C@@](O)(C(=O)C(=O)N3CCCC[C@H]3C(=O)O[C@H](/C(C)=C/[C@@H]3CC[C@@H](O)[C@H](OC)C3)[C@H](C)[C@@H](O)CC1=O)[C@H](C)C[C@@H]2OC [tacrolimus] | 84% | less pronounced | – |
| {[1E-(1R,3R,4S)]1R,9S,12S, 13R,14S,17R,18E,21S,23S,24R,25S,27R}-12-[2-(4-chloro-3-methoxycyclohexyl)-1-methylvinyl]-17-ethyl-1,14-dihydroxy-23,25-dimethoxy-13,19,21,27-tetramethyl-11,28,dioxa-4-azatricyclo [22.3.1.0(4,9)]octacos-18-ene-2,3,10,16-tetraone [pimecrolimus] | 89% | less pronounced | clearly lower |
